Test results from US20130101615A1, “METHODS FOR PREVENTING OR TREATING A DISEASE OR CONDITION ASSOCIATED WITH MYCOBACTERIUM AVIUM SUBSPECIES PARATUBERCULOSIS” (priority 2005, published 2013).
“Also recorded” adds a separate entry of the source. Where two headings read alike, the source gives them in different places.

B1: AhpD: Alkyl hydroperoxide reductase D, immunogenic MAP protein, recombinant antigen (protein, UniProt A0QGI9 1-178, looked up)
Alkyl hydroperoxide reductase …: MSVENLKEALPEYAKDLKLNLGSITRTTELNEEQLWGTLLASAAATRNTQVLTEIGAEAADTLSAEAYHAALGAASVMAMNNVFYRGRGFLDGKYDDLRAGLRMNIIGNPGVEKANFELWCFAVSAINGCPDCVASHEHTLREAGVSRETIQEALKAAAIISGVAQAIVTSQTLATAG

What was measured:
[1] = test system: MAP Dominic (ATCC 43545), isolated from human with Crohn's disease; type: cell-based, Mycobacterium avium subspecies paratuberculosis; details: vs 3.2% DMSO control
MAP ATCC 19698 (bovine) = type: cell-based, Mycobacterium avium subspecies paratuberculosis; details: for % ΔcGI: Bovine MAP 19698, vs 3.2% DMSO control
[2] = test system: MAP UCF 4, isolated from human with Crohn's disease; assay: Radiometric BACTEC growth inhibition, MAP UCF4; type: cell-based, Mycobacterium avium subspecies paratuberculosis; details: for % ΔcGI: Human MAP UCF4, vs 3.2% DMSO control
[3] = test system: MAP 303 (ruminant with Johne's disease); assay: Radiometric BACTEC growth inhibition, MAP 303; type: cell-based, Mycobacterium avium subspecies paratuberculosis; details: Bovine MAP 303, vs 3.2% DMSO control
M. avium ATCC 25291 = type: cell-based, M. avium subspecies avium; details: for % ΔcGI: M. avium 25291, vs 3.2% DMSO control
M. avium 101 = type: cell-based, M. avium subspecies avium; details: for % ΔcGI: vs 3.2% DMSO control
MAP = assay: Growth inhibition of MAP (strain not stated or MAP strains in general); details: MAP strains in general
MAP and M. avium strains = assay: Radiometric BACTEC growth inhibition, all strains tested; type: cell-based, Mycobacterium avium; details: any strain tested (MAP and M. avium)
MAP and M. tuberculosis = type: in vivo, Mice; details: 15 μg i.p. in combination with Ag85B-ESAT-6 fusion protein, CFA then IFA; challenge at week 8
[4] = 1 μg/ml, Human MAP Dominic Expt. 1
[5] = 1 μg/ml, Human MAP Dominic Expt. 2
[6] = 4 μg/ml, Human MAP Dominic Expt. 1
[7] = 4 μg/ml, Human MAP Dominic Expt. 2
[8] = 16 μg/ml, Human MAP Dominic Expt. 1
[9] = 16 μg/ml, Human MAP Dominic Expt. 2
[10] = 64 μg/ml, Human MAP Dominic Expt. 1
[11] = 64 μg/ml, Human MAP Dominic Expt. 2

Molecule | % ΔcGI [1, 4] [%] | % ΔcGI [1, 5] [%] | % ΔcGI [1, 6] [%] | % ΔcGI [1, 7] [%] | % ΔcGI [1, 8] [%] | % ΔcGI [1, 9] [%] | % ΔcGI [1, 10] [%] | % ΔcGI [1, 11] [%] | % ΔcGI (MAP ATCC 19698 (bovine); 1 μg/ml) [%] | % ΔcGI (MAP ATCC 19698 (bovine); 4 μg/ml) [%] | % ΔcGI (MAP ATCC 19698 (bovine); 16 μg/ml) [%] | % ΔcGI (MAP ATCC 19698 (bovine); 64 μg/ml) [%] | % ΔcGI ([2]; 1 μg/ml) [%] | % ΔcGI ([2]; 4 μg/ml) [%] | % ΔcGI ([2]; 16 μg/ml) [%] | % ΔcGI ([2]; 64 μg/ml) [%] | % ΔcGI ([3]; 1 μg/ml) [%] | % ΔcGI ([3]; 4 μg/ml) [%] | % ΔcGI ([3]; 16 μg/ml) [%] | % ΔcGI ([3]; 64 μg/ml) [%] | also measured
CC[C@@]1([C@@H]2O[C@@H]([C@H]3O[C@@](O)(CO)[C@H](C)C[C@@H]3C)C[C@@H]2C)CC[C@H]([C@]2(C)CC[C@]3(C[C@H](O)[C@@H](C)[C@@H]([C@@H](C)[C@@H](OC)[C@H](C)C(=O)O)O3)O2)O1 [Monensin, monensin] | −52 | −46 | −77 | −71 | −93 | −87 | −94 | −92 | −14 | −45 | −62 | −65 | −73 | −93 | −96 | −97 | −21 | −73 | −94 | −97 | % ΔcGI (M. avium ATCC 25291; 1 μg/ml): −25%; % ΔcGI (M. avium ATCC 25291; 4 μg/ml): −54%; % ΔcGI (M. avium ATCC 25291; 16 μg/ml): −69%; % ΔcGI (M. avium ATCC 25291; 64 μg/ml): −87%; effect on growth, in words (M. avium 101): no inhibition; % ΔcGI (M. avium 101; 1 μg/ml): 7%; % ΔcGI (M. avium 101; 4 μg/ml): 3%; % ΔcGI (M. avium 101; 16 μg/ml): 4%; % ΔcGI (M. avium 101; 64 μg/ml): 8%; effect on growth of MAP, in words (MAP): dose-dependent inhibition against all MAP strains
O=C1NC(=O)c2ccccc21 [Phthalimide, phthalimide] | −3 | −1 | 7 | 0 | 0 | 1 | 2 | 4 | −2 | −10 | 1 | 0 | 4 | −2 | 1 | 3 | −2 | 3 | −13 | 6 | % ΔcGI (M. avium ATCC 25291; 1 μg/ml): 2%; % ΔcGI (M. avium ATCC 25291; 4 μg/ml): 4%; % ΔcGI (M. avium ATCC 25291; 16 μg/ml): 1%; % ΔcGI (M. avium ATCC 25291; 64 μg/ml): 12%; effect on growth, in words (M. avium ATCC 25291; M. avium ATCC 25291): no dose-dependent inhibition; effect on growth, in words (M. avium 101): no dose-dependent inhibition; % ΔcGI (M. avium 101; 1 μg/ml): −3%; % ΔcGI (M. avium 101; 4 μg/ml): 4%; % ΔcGI (M. avium 101; 16 μg/ml): 2%; % ΔcGI (M. avium 101; 64 μg/ml): −2%; dose-dependent inhibition, in words (MAP and M. avium strains): no dose-dependent effect on any strain tested; dose-dependent inhibition, in words (MAP and M. avium strains; listed as phthalimide): did not exhibit a dose-dependent inhibition of any strain
C[C@@H]1C[C@@H]([C@H](O)CC2CC(=O)NC(=O)C2)C(=O)[C@@H](C)C1 [Cycloheximide, cycloheximide] | 15 | 9 | −4 | 0 | −8 | −4 | −1 | −7 | −2 | −7 | −12 | −9 | 1 | −7 | −4 | −12 | 3 | 4 | −5 | −4 | % ΔcGI (M. avium ATCC 25291; 1 μg/ml): 0%; % ΔcGI (M. avium ATCC 25291; 4 μg/ml): −8%; % ΔcGI (M. avium ATCC 25291; 16 μg/ml): −7%; % ΔcGI (M. avium ATCC 25291; 64 μg/ml): −57%; %−ΔcGI (percent decrease in cumulative GI) (M. avium ATCC 25291; 64 μg/ml, M. avium ATCC 25291): 57%; effect on growth, in words (M. avium 101): no affect; % ΔcGI (M. avium 101; 1 μg/ml): 6%; % ΔcGI (M. avium 101; 4 μg/ml): 7%; % ΔcGI (M. avium 101; 16 μg/ml): 1%; % ΔcGI (M. avium 101; 64 μg/ml): 5%; effect on growth of MAP, in words (MAP): no dose-dependent inhibition on any MAP strain
C=CC[C@@H]1/C=C(\C)C[C@H](C)C[C@H](OC)[C@H]2O[C@@](O)(C(=O)C(=O)N3CCCC[C@H]3C(=O)O[C@H](/C(C)=C/[C@@H]3CC[C@@H](O)[C@H](OC)C3)[C@H](C)[C@@H](O)CC1=O)[C@H](C)C[C@@H]2OC [Tacrolimus, tacrolimus (FK506)] | 28 | 5 | 9 | 9 | 21 | −10 | 0 | −21 | 8 | −3 | −5 | −26 | 6 | −19 | −18 | −43 | 5 | 3 | −5 | −27 | %−ΔcGI (percent decrease in cumulative GI) (MAP ATCC 19698 (bovine); 64 μg/ml, MAP ATCC 19698): 26%; %−ΔcGI (percent decrease in cumulative GI) ([2]; 64 μg/ml, MAP UCF 4): 43%; % ΔcGI (M. avium ATCC 25291; 1 μg/ml): −23%; % ΔcGI (M. avium ATCC 25291; 4 μg/ml): −3%; % ΔcGI (M. avium ATCC 25291; 16 μg/ml): 11%; % ΔcGI (M. avium ATCC 25291; 64 μg/ml): 53%; effect on growth, in words (M. avium ATCC 25291; M. avium ATCC 25291): no inhibition; also recorded: enhanced growth; effect on growth, in words (M. avium 101): the most inhibition on M. avium 101 of all six strains studied; % ΔcGI (M. avium 101; 1 μg/ml): −34%; % ΔcGI (M. avium 101; 4 μg/ml): −43%; % ΔcGI (M. avium 101; 16 μg/ml): −40%; % ΔcGI (M. avium 101; 64 μg/ml): −52%; effect on growth of MAP, in words (MAP): the least inhibition of the three “immunosuppressants” studied
B1 |  |  |  |  |  |  |  |  |  |  |  |  |  |  |  |  |  |  |  |  | protection against infection after immunization (MAP and M. tuberculosis): elicits a response capable of protecting against MAP and M. tuberculosis infection
